Results reported in article PMC3527104 (Bioorganic & medicinal chemistry, 2012).

Key:
[1] = target: T1, α7-nAChRs (Mus musculus, UniProt P49582); experiment: blocking dissection study with PHA543613 in mice; details: PHA543613 0.5 mg/kg s.c., 15 min before tracer; 90 min after tracer
[2] = target: T1, α7-nAChRs; details: CD1 mice, i.v.; frontal cortex, thalamus, striatum, hippocampus; post-injection

T1 sequence (P49582 23-502): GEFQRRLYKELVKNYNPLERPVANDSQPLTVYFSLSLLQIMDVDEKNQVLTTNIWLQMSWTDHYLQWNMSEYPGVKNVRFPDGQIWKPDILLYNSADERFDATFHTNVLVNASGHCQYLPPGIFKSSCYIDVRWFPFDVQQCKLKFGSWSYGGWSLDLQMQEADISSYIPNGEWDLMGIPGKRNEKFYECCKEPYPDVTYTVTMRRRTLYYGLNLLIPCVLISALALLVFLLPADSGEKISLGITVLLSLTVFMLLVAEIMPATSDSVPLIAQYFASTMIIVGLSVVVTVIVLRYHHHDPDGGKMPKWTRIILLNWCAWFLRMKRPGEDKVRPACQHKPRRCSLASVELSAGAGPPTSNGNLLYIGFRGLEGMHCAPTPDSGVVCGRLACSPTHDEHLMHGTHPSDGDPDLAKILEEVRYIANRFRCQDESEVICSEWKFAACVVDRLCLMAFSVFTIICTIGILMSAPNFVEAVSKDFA

SMILES | blockade of [^11C]rac-1 binding in the cerebellum [1] | inhibition of [^11C]rac-1 binding in hippocampus and frontal cortex [1] | time of peak radioactivity accumulation [2]
O=C(N[C@H]1CN2CCC1CC2)c1cc2ccoc2cn1 [PHA543613] | minimal | significantly inhibited | –
[11CH3]N1CC2CN(c3ccc(-c4ccc5[nH]ccc5c4)nc3)CC21 (racemic) [[^11C]rac-1, 5-(5-(6-[^11C]methyl-3,6-diazabicyclo[3.2.0]heptan-3-yl)pyridin-2-yl)-1H-indole] | – | – | 30 min
